# Laboratory results taken from patent US10010547B2 (CASCADIAN THERAPEUTICS, INC., priority 2014, dated 2018).
# Counter-ions that a name gives are not always drawn. Like-named read-outs stand apart in the source and are kept apart here.
# Experiments:
# Chk-1 kinase = Chk-1 kinase (Homo sapiens (Human), UniProt O14757); test: Chk-1 Kinase Inhibiting Activity (33P-ATP filter assay, CHKtide substrate); format: biochemical
# In short: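 Full-length N-terminal GST-tagged human Chk-1 from insect cells, 0.5 nM final, with 20 μM peptide substrate and 33P-ATP in HEPES pH 7.5 buffer with 1% DMSO. Reaction ran 120 minutes at room temperature; incorporated radioactivity captured on P81 filters and counted for IC50.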
# MIA PaCa-2 cells = test: Gemcitabine Combination Cell Assay (Cell Titer Glo); format: cell-based; details: for 10xLS: approximate concentration of Chk1 inhibitor that results in a 10-fold reduction in the IC50 of gemcitabine alone; for 2xLS: approximate concentration of Chk1 inhibitor that results in a two-fold reduction in the IC50 of gemcitabine alone
# In short: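 MIA PaCa-2 cells were treated 72 h with half-log dilutions of Chk1 inhibitor (top 3000 nM) and gemcitabine (top 100 nM), alone and in full matrix; viability by CellTiter-Glo luminescence. IC50s from four-parameter fit; Chk1 inhibitor concentrations giving two- and ten-fold lowering of gemcitabine IC50 were estimated.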
# [1] = against Chk-1 kinase, read-out: IC50
# [2] = Homo sapiens, Chk1 inhibitor alone, MIA PaCa-2 cells, 72 h, read-out: Chk1 IC50
# [3] = Homo sapiens, MIA PaCa-2, 72 h, read-out: Chk1 IC50 (nM)
# Chain of Chk-1 kinase (O14757 whole entry): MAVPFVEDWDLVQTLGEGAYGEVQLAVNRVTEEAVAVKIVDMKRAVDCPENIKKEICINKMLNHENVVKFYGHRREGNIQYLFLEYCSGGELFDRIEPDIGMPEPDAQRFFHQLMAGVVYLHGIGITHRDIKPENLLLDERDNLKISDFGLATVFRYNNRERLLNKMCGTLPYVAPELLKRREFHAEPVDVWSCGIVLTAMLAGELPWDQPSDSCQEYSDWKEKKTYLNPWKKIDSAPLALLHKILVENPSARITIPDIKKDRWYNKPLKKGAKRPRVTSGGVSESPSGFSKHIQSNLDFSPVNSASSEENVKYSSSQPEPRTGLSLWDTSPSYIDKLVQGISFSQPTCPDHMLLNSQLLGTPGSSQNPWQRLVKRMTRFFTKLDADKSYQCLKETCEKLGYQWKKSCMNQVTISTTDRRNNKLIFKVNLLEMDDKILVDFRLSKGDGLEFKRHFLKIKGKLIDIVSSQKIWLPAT
SMILES,IC50 (Chk-1 kinase; [1]) [nM],IC50 (MIA PaCa-2 cells; [2]) [nM],"10xLS (MIA PaCa-2 cells; MIA PaCa-2 cells, 72 h) [nM]","2xLS (MIA PaCa-2 cells; MIA PaCa-2 cells, 72 h) [nM]",IC50 (MIA PaCa-2 cells; [3]) [nM],IC50 (Chk-1 kinase) [nM],"IC50 (MIA PaCa-2 cells; Chk1 inhibitor alone, MIA PaCa-2 cells, 72 h, read-out: Chk1 IC50) [nM]"
"COc1cc(N2CCN(C(C)C)CC2)cc(F)c1-c1cc(Nc2cnc(C#N)cn2)n[nH]1 [Example 137, 5-[[5-[4-(4-isopropylpiperazin-1-yl)-2-fluoro-6-methoxy-phenyl]-1H-pyrazol-3-yl]amino]pyrazine-2-carbonitrile]",0.048,256,<100,<3,–,–,–
"COc1cc(CNCCN2CCOCC2)ccc1-c1cc(Nc2cnccn2)n[nH]1 [Example 10, (5-{2-methoxy-4-[(2-morpholin-4-yl-ethylamino)-methyl]-phenyl}-1H-pyrazol-3-yl)-pyrazin-2-yl-amine]",11,> 3000,>3000,1000,–,–,–
"COc1cc(C2(F)CN(C)C2)ccc1-c1cc(Nc2cnc(C#N)cn2)n[nH]1 [Example 66, 5-[[5-[4-(3-fluoro-1-methyl-azetidin-3-yl)-2-methoxy-phenyl]-1H-pyrazol-3-yl]amino]pyrazine-2-carbonitrile]",0.14,111,30,<3,–,–,–
"COc1cc(NCC2CCN(C(C)C)CC2)ccc1-c1cc(Nc2cnc(C#N)cn2)n[nH]1 [Example 109, 5-[[5-[4-[(1-isopropyl-4-piperidyl)methylamino]-2-methoxy-phenyl]-1H-pyrazol-3-yl]amino]pyrazine-2-carbonitrile]",0.087,82,<30,<3,–,–,–
"COc1cc(O[C@H]2CCNC2)ccc1-c1cc(Nc2cnc(C#N)cn2)n[nH]1 [Example 33, 5-[[5-[2-methoxy-4-[(3S)-pyrrolidin-3-yl]oxy-phenyl]-1H-pyrazol-3-yl]amino]pyrazine-2-carbonitrile]",0.074,62,<30,<3,–,–,–
"COc1cc(C2CCNCC2)ccc1-c1cc(Nc2cnc(C)cn2)n[nH]1 [Example 55, N-[5-[2-methoxy-4-(4-piperidyl)phenyl]-1H-pyrazol-3-yl]-5-methyl-pyrazin-2-amine]",227,> 3000,>3000,1000,–,–,–
"CCN1CCC(F)(c2ccc(-c3cc(Nc4cnc(C#N)cn4)n[nH]3)c(OC)c2)CC1 [Example 85, 5-[[5-[4-(1-ethyl-4-fluoro-4-piperidyl)-2-methoxy-phenyl]-1H-pyrazol-3-yl]amino]pyrazine-2-carbonitrile]",0.25,138,100,3,–,–,–
"COc1cc(N2CCN[C@H](C)C2)ccc1-c1cc(Nc2cnc(C#N)cn2)n[nH]1 [Example 82, 5-[[5-[2-methoxy-4-[(3R)-3-methylpiperazin-1-yl]phenyl]-1H-pyrazol-3-yl]amino]pyrazine-2-carbonitrile]",0.016,74,<30,<3,–,–,–
"CC(C)Oc1cc(C2CCNCC2)ccc1-c1cc(Nc2cnc(C#N)cn2)n[nH]1 [Example 53, 5-[[5-[2-isopropoxy-4-(4-piperidyl)phenyl]-1H-pyrazol-3-yl]amino]pyrazine-2-carbonitrile]",3.1,2300,1000,100,–,–,–
"COc1cc(OC[C@H]2CCCN2C(C)C)ccc1-c1cc(Nc2cnc(C#N)cn2)n[nH]1 [Example 127, 5-[[5-[4-[[(2R)-1-isopropylpyrrolidin-2-yl]methoxy]-2-methoxy-phenyl]-1H-pyrazol-3-yl]amino]pyrazine-2-carbonitrile]",0.044,169,<100,<3,–,–,–
"COc1cc(C2CCNCC2)ccc1-c1cc(Nc2ccc(C#N)nc2)n[nH]1 [Example 52, 5-[[5-[2-methoxy-4-(4-piperidyl)phenyl]-1H-pyrazol-3-yl]amino]pyridine-2-carbonitrile]",0.46,953,300,30,–,–,–
"COc1cc(N2CCCNCC2)ccc1-c1cc(Nc2cnc(C#N)cn2)n[nH]1 [Example 54, 5-[[5-[4-(1,4-diazepan-1-yl)-2-methoxy-phenyl]-1H-pyrazol-3-yl]amino]pyrazine-2-carbonitrile]",0.12,137,30,<3,–,–,–
"COc1cc(N2CCN(C)CC2)cc(OC)c1-c1cc(Nc2cnc(C#N)cn2)n[nH]1 [Example 122, 5-[[5-[2,6-dimethoxy-4-(4-methylpiperazin-1-yl)phenyl]-1H-pyrazol-3-yl]amino]pyrazine-2-carbonitrile]",0.14,136,<100,3,–,–,–
"COc1cc(C2CCNCC2)ccc1-c1cc(Nc2ccc(C#N)cn2)n[nH]1 [Example 50, 6-[[5-[2-methoxy-4-(4-piperidyl)phenyl]-1H-pyrazol-3-yl]amino]pyridine-3-carbonitrile]",20,> 3000,3000,300,–,–,–
"COc1cc(C2CCN(C)CC2)ccc1-c1cc(Nc2ccc(C#N)cn2)n[nH]1 [Example 25, 6-[[5-[2-methoxy-4-(1-methyl-4-piperidyl)phenyl]-1H-pyrazol-3-yl]amino]pyridine-3-carbonitrile]",14,> 3000,>3000,300,–,–,–
"COc1cc(CNCC2CC2)ccc1-c1cc(Nc2cnc(C#N)cn2)n[nH]1 [Example 130, 5-[[5-[4-[(cyclopropylmethylamino)methyl]-2-methoxy-phenyl]-1H-pyrazol-3-yl]amino]pyrazine-2-carbonitrile]",0.025,142,<100,3,–,–,–
"COc1cc(C2(F)CCN(C)CC2)ccc1-c1cc(Nc2cnc(C#N)cn2)n[nH]1 [Example 64, 5-[[5-[4-(4-Fluoro-1-methyl-4-piperidyl)-2-methoxy-phenyl]-1H-pyrazol-3-yl]amino]pyrazine-2-carbonitrile hydrochloride]",0.15,–,100,3,144,–,–
"COc1cc(CO[C@H]2CCN(C(C)C)C2)ccc1-c1cc(Nc2cnc(C#N)cn2)n[nH]1 [Example 139, 5-[[5-[4-[[(3S)-1-isopropylpyrrolidin-3-yl]oxymethyl]-2-methoxy-phenyl]-1H-pyrazol-3-yl]amino]pyrazine-2-carbonitrile]",0.027,743,300,10,–,–,–
"COc1cc(CN2CC[C@@H](F)C2)ccc1-c1cc(Nc2cnc(C#N)cn2)n[nH]1 [Example 123, 5-[[5-[4-[[(3R)-3-fluoropyrrolidin-1-yl]methyl]-2-methoxy-phenyl]-1H-pyrazol-3-yl]amino]pyrazine-2-carbonitrile hydrochloride]",0.16,–,<300,3,440,–,–
"COc1cc(CNC2CCOC2)ccc1-c1cc(Nc2cnc(C#N)cn2)n[nH]1 (stereo not shown) [Example 72, 5-[[5-[2-methoxy-4-[(tetrahydrofuran-3-ylamino)methyl]phenyl]-1H-pyrazol-3-yl]amino]pyrazine-2-carbonitrile]",0.16,173,100,10,–,–,–
"COc1cc([C@H]2CCN(C)C[C@@H]2F)ccc1-c1cc(Nc2cnc(C#N)cn2)n[nH]1 [Example 96, 5-[[5-[4-[(3(R,S),4(R,S))-3-fluoro-1-methyl-4-piperidyl]-2-methoxy-phenyl]-1H-pyrazol-3-yl]amino]pyrazine-2-carbonitrile]",–,730,<300,10,–,0.4,–
"COc1cc(COC2CCN(C(C)C)CC2)ccc1-c1cc(Nc2cnc(C#N)cn2)n[nH]1 [Example 115, 5-[[5-[4-[(1-isopropyl-4-piperidyl)oxymethyl]-2-methoxy-phenyl]-1H-pyrazol-3-yl]amino]pyrazine-2-carbonitrile]",0.24,–,<300,3,–,–,515
"CN1CCC(c2ccc(-c3cc(Nc4cnc(C#N)cn4)n[nH]3)c(F)c2)CC1 [Example 21, 5-[[5-[2-fluoro-4-(1-methyl-4-piperidyl)phenyl]-1H-pyrazol-3-yl]amino]pyrazine-2-carbonitrile]",2.4,3180,1000,100,–,–,–
"COc1cc(C2CCN(C)CC2)ccc1-c1cc(Nc2cnc(Cl)cn2)n[nH]1 [Example 44, 5-chloro-N-[5-[2-methoxy-4-(1-methyl-4-piperidyl)phenyl]-1H-pyrazol-3-yl]pyrazin-2-amine]",0.69,1260,1000,100,–,–,–
"CCN1CCN(c2cc(F)c(-c3cc(Nc4cnc(C#N)cn4)n[nH]3)c(OC)c2)CC1 [Example 136, 5-[[5-[4-(4-ethylpiperazin-1-yl)-2-fluoro-6-methoxy-phenyl]-1H-pyrazol-3-yl]amino]pyrazine-2-carbonitrile]",0.053,228,100,3,–,–,–
